# Measured values taken from patent US8354436B2 (4SC Discovery GmbH, priority 2011, dated 2013).
# Read-outs that look alike come from different tables or passages of the source.
# How the values were obtained:
# Type in all cases: cell-based
# Details in all cases: 48 hours
# IFN-γ = IFN-γ production by PHA-stimulated human PBMC (OptEIA human IFN-g ELISA)
# Procedure, shortened: (§1)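 Healthy-donor PBMC (1×10^5 cells/well) activated with 2 μg/ml PHA and incubated with compounds for 48 h. Supernatant IL-17AA/AF read by Luminex BioPlex, IL-17AA, IL-17FF and IFN-γ by ELISA. Screening at 10, 1, 0.1 and 0.01 μM; IC50 from semilogarithmic titrations.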
# IL-17FF = IL-17FF production by PHA-stimulated human PBMC (human IL-17F ELI-Pair)
# Procedure, shortened: as §1
# [1] = test system: PBMC from healthy human donors; assay: T cell proliferation assay (PHA-stimulated human PBMC, BrdU ELISA)
# Procedure, shortened: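 Healthy-donor PBMC isolated on Ficoll, seeded at 1×10⁵ cells/well in RPMI with 10% dialysed FCS, stimulated with 2 μg/ml PHA in presence of test compound. Proliferation read after 48 hours by BrdU-incorporation ELISA.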
# [2] = human PBMC, 2 μg/ml PHA, read-out: C: IC50 (IFNγ)
# [3] = human PBMC, 2 μg/ml PHA, read-out: B: IC50 (IL-17FF)
# [4] = human PBMC, 2 μg/ml PHA, read-out: D: IC50 (Tcell proliferation)
# [5] = PHA-stimulated human PBMC, column C, read-out: IC50 (IFNγ)
# [6] = PHA-stimulated human PBMC, column B, read-out: IC50 (IL-17FF)
# [7] = PHA-stimulated human PBMC, column D, read-out: IC50 (Tcell proliferation)
IC50 (IFN-γ; [2]),IC50 (IL-17FF; [3]),IC50 (IFN-γ; [5]),IC50 (IL-17FF; [6]),SMILES,"IC50 [1, 4]","IC50 [1, 7]"
100 to 1000 nM,100 to 1000 nM,–,–,"Fc1ccccc1-n1ncc(-c2onc(-c3c(F)cccc3Cl)c2-c2cnco2)c1C(F)(F)F [Example B-28, 3-(2-chloro-6-fluorophenyl)-5-(1-(2-fluorophenyl)-5-(trifluoromethyl)-1H-pyrazol-4-yl)-4-(oxazol-5-yl)isoxazole]",100 to 1000 nM,–
–,–,100 to 1000 nM,100 to 1000 nM,"Nc1c(-c2c(F)cccc2Cl)noc1-c1cnn(-c2cccc(Cl)c2)c1C(F)(F)F [IB-36, 3-(2-chloro-6-fluorophenyl)-5-(1-(3-chlorophenyl)-5-(trifluoromethyl)-1H-pyrazol-4-yl)isoxazol-4-amine]",–,100 to 1000 nM
–,–,100 to 1000 nM,100 to 1000 nM,"Fc1cc(F)cc(-n2ncc(-c3onc(-c4c(F)cccc4Cl)c3Br)c2C(F)(F)F)c1 [IB-27, 4-bromo-3-(2-chloro-6-fluorophenyl)-5-(1-(3,5-difluorophenyl)-5-(trifluoromethyl)-1H-pyrazol-4-yl)isoxazole]",–,100 to 1000 nM
–,–,1000 to 10000 nM,1000 to 10000 nM,"CCOC(=O)c1c(-c2c(F)cccc2Cl)noc1-c1cnn(Cc2ccccc2F)c1C(F)(F)F [IB-80, ethyl 3-(2-chloro-6-fluorophenyl)-5-(1-(2-fluorobenzyl)-5-(trifluoromethyl)-1H-pyrazol-4-yl)isoxazole-4-carboxylate]",–,1000 to 10000 nM
–,–,100 to 1000 nM,100 to 1000 nM,"NC(=S)c1c(-c2c(F)cccc2Cl)noc1-c1cnn(-c2cccc(Cl)c2)c1C(F)(F)F [Example I-125, 3-(2-chloro-6-fluorophenyl)-5-(1-(3-chlorophenyl)-5-(trifluoromethyl)-1H-pyrazol-4-yl)isoxazole-4-carbothioamide]",–,1000 to 10000 nM
–,–,1000 to 10000 nM,1000 to 10000 nM,"CCOC(=O)c1c(-c2onc(-c3c(F)cccc3Cl)c2C(=O)OC)cnn1-c1ccc(Cl)cc1Cl [Example I-6, methyl 3-(2-chloro-6-fluorophenyl)-5-(1-(2,4-dichlorophenyl)-5-(ethoxycarbonyl)-1H-pyrazol-4-yl)isoxazole-4-carboxylate]",–,1000 to 10000 nM
–,–,100 to 1000 nM,100 to 1000 nM,"Fc1cccc(-n2ncc(-c3onc(-c4c(F)cccc4Cl)c3Br)c2C(F)(F)F)c1 [Example I-137, 4-bromo-3-(2-chloro-6-fluorophenyl)-5-(1-(3-fluorophenyl)-5-(trifluoromethyl)-1H-pyrazol-4-yl)isoxazole]",–,10 to 100 nM
–,–,100 to 1000 nM,100 to 1000 nM,"CCOC(=O)c1c(-c2onc(-c3c(F)cccc3Cl)c2C(=O)OC)cnn1-c1ccccc1F [Example I-41, methyl 3-(2-chloro-6-phenyl)-5-(5-(ethoxycarbonyl)-1-(2-fluorophenyl)-1H-pyrazol-4-yl)isoxazole-4-carboxylate]",–,100 to 1000 nM
–,–,100 to 1000 nM,100 to 1000 nM,"COC(=O)c1c(-c2c(F)cccc2Cl)noc1-c1cnn(-c2c(Cl)cccc2Cl)c1C(F)(F)F [Example I-70, methyl 3-(2-chloro-6-fluorophenyl)-5-(1-(2,6-dichlorophenyl)-5-(trifluoromethyl)-1H-pyrazol-4-yl)isoxazole-4-carboxylate]",–,100 to 1000 nM
–,–,< 10 nM,10 to 100 nM,"CCOC(=O)c1c(-c2ccncc2F)noc1-c1cnn(-c2cccc(NC(C)=O)c2)c1C(F)(F)F [IB-6, ethyl 5-(1-(3-acetamidophenyl)-5-(trifluoromethyl)-1H-pyrazol-4-yl)-3-(3-fluoropyridin-4-yl)isoxazole-4-carboxylate]",–,100 to 1000 nM
–,–,1000 to 10000 nM,1000 to 10000 nM,"CCOC(=O)c1c(-c2c(F)cccc2Cl)noc1-c1cnn(-c2ccc([N+](=O)[O-])cc2)c1C(F)(F)F [IB-94, ethyl 3-(2-chloro-6-fluorophenyl)-5-(1-(4-nitrophenyl)-5-(trifluoromethyl)-1H-pyrazol-4-yl)isoxazole-4-carboxylate]",–,1000 to 10000 nM
–,–,100 to 1000 nM,100 to 1000 nM,"CNC(=O)c1c(-c2ccccc2Cl)noc1-c1cnn(-c2cccc(F)c2)c1C(F)(F)F [Example I-96, 3-(2-chlorophenyl)-5-(1-(3-fluorophenyl)-5-(trifluoro-methyl)-1H-pyrazol-4-yl)-N-methylisoxazole-4-carboxamide]",–,100 to 1000 nM
–,–,10 to 100 nM,10 to 100 nM,"CCOC(=O)c1c(-c2c(Cl)cncc2Cl)noc1-c1cnn(-c2ccccc2F)c1C(F)(F)F [IB-9, ethyl 3-(3,5-dichloropyridin-4-yl)-5-(1-(2-fluorophenyl)-5-(trifluoromethyl)-1H-pyrazol-4-yl)isoxazole-4-carboxylate]",–,10 to 100 nM
1000 to 10000 nM,1000 to 10000 nM,–,–,"Cc1nnc(-c2c(-c3c(F)cccc3Cl)noc2-c2cnn(-c3ccccc3Cl)c2C(F)(F)F)o1 [Example B-18, 2-(3-(2-chloro-6-fluorophenyl)-5-(1-(2-chlorophenyl)-5-(trifluoromethyl)-1H-pyrazol-4-yl)isoxazol-4-yl)-5-methyl-1,3,4-oxadiazole]",1000 to 10000 nM,–
–,–,10 to 100 nM,10 to 100 nM,"COC(=O)c1c(-c2c(F)cccc2Cl)noc1-c1cnn(-c2ccncc2)c1C(F)(F)F [IB-69, methyl 3-(2-chloro-6-fluorophenyl)-5-(1-(pyridin-4-yl)-5-(trifluoromethyl)-1H-pyrazol-4-yl)isoxazole-4-carboxylate]",–,10 to 100 nM
–,–,100 to 1000 nM,100 to 1000 nM,"NC(=S)c1c(-c2c(F)cccc2Cl)noc1-c1cnn(-c2ccccc2F)c1C(F)(F)F [IB-102, 3-(2-chloro-6-fluorophenyl)-5-(1-(2-fluorophenyl)-5-(trifluoromethyl)-1H-pyrazol-4-yl)isoxazole-4-carbothioamide]",–,100 to 1000 nM
–,–,100 to 1000 nM,100 to 1000 nM,"Fc1ccc(-n2ncc(-c3onc(-c4c(F)cccc4Cl)c3Br)c2C(F)(F)F)cc1 [IB-28, 4-bromo-3-(2-chloro-6-fluorophenyl)-5-(1-(4-fluorophenyl)-5-(trifluoromethyl)-1H-pyrazol-4-yl)isoxazole]",–,100 to 1000 nM
–,–,< 10 nM,< 10 nM,"COC(=O)c1c(-c2c(Cl)cccc2Cl)noc1-c1cnn(-c2cccc(F)c2)c1C(F)(F)F [Example I-109, methyl 3-(2,6-dichlorophenyl)-5-(1-(3-fluorophenyl)-5-(trifluoromethyl)-1H-pyrazol-4-yl)isoxazole-4-carboxylate]",–,< 10 nM
–,–,100 to 1000 nM,100 to 1000 nM,"CNC(=S)c1c(-c2c(F)cccc2Cl)noc1-c1cnn(-c2cccc(F)c2)c1C(F)(F)F [Example I-122, 3-(2-chloro-6-fluorophenyl)-5-(1-(3-fluorophenyl)-5-(trifluoromethyl)-1H-pyrazol-4-yl)-N-methylisoxazole-4-carbothioamide]",–,100 to 1000 nM
–,–,100 to 1000 nM,100 to 1000 nM,"CCOC(=O)c1c(-c2onc(-c3c(F)cccc3Cl)c2C(=O)OC)cnn1-c1cccc(C#N)c1 [Example I-13, methyl 3-(2-chloro-6-fluorophenyl)-5-(1-(3-cyanophenyl)-5-(ethoxycarbonyl)-1H-pyrazol-4-yl)isoxazole-4-carboxylate]",–,100 to 1000 nM
–,–,< 10 nM,< 10 nM,"Fc1cccc(Cl)c1-c1noc(-c2cnn(-c3cccc(Cl)c3)c2C(F)(F)F)c1Br [Example I-140, 4-bromo-3-(2-chloro-6-fluorophenyl)-5-(1-(3-chlorophenyl)-5-(trifluoromethyl)-1H-pyrazol-4-yl)isoxazole]",–,10 to 100 nM
–,–,10 to 100 nM,10 to 100 nM,"O=C(c1c(-c2ccccc2Cl)noc1-c1cnn(-c2cccc(Cl)c2)c1C(F)(F)F)N1CCCO1 [IB-62, (3-(2-chlorophenyl)-5-(1-(3-chlorophenyl)-5-(trifluoromethyl)-1H-pyrazol-4-yl)isoxazol-4-yl)(isoxazolidin-2-yl)methanone]",–,10 to 100 nM
–,–,< 10 nM,< 10 nM,"CCOC(=O)c1c(-c2c(F)cccc2Cl)noc1-c1cnn(-c2cccc(C#N)c2)c1C(F)(F)F [IB-32, ethyl 3-(2-chloro-6-fluorophenyl)-5-(1-(3-cyanophenyl)-5-(trifluoromethyl)-1H-pyrazol-4-yl)isoxazole-4-carboxylate]",–,10 to 100 nM
< 10 nM,< 10 nM,–,–,"Fc1cccc(Cl)c1-c1noc(-c2cnn(-c3cccc(Cl)c3)c2C(F)(F)F)c1-c1nnco1 [Example B-5, 2-(3-(2-chloro-6-fluorophenyl)-5-(1-(3-chlorophenyl)-5-(trifluoromethyl)-1H-pyrazol-4-yl)isoxazol-4-yl)-1,3,4-oxadiazole]",< 10 nM,–
–,–,10 to 100 nM,100 to 1000 nM,"CCOC(=O)c1c(-c2onc(-c3c(F)cccc3Cl)c2C(=O)OC)cnn1-c1cccc(Cl)c1 [Example I-10, methyl 3-(2-chloro-6-fluorophenyl)-5-(1-(3-chlorophenyl)-5-(ethoxycarbonyl)-1H-pyrazol-4-yl)isoxazole-4-carboxylate]",–,10 to 100 nM
–,–,10 to 100 nM,10 to 100 nM,"CNC(=O)c1c(-c2c(Cl)cccc2Cl)noc1-c1cnn(-c2cccc(F)c2)c1C(F)(F)F [Example I-110, 3-(2,6-dichlorophenyl)-5-(1-(3-fluorophenyl)-5-(trifluoromethyl)-1H-pyrazol-4-yl)-N-methylisoxazole-4-carboxamide]",–,10 to 100 nM
